Reference: the supplement of paper PMC8612539
Converted amounts (≈) assume the structure as drawn.

Tested on: Pasteurella multocida
Experiment: minimum inhibitory concentration (MIC)
Experimental: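 Broth microdilution MIC (Sensititre BOPO7F bovine plate, CLSI methods) of 19 antimicrobials against field isolates of P. multocida, M. haemolytica, H. somni (deep nasopharyngeal swabs) and E. coli, Enterococcus spp. (rectal swabs) from weaned dairy heifers. Incubation 16-24 h at 35 C. MIC is the lowest concentration preventing visible growth. Values with <= or > lie at the tested range limits. Trimethoprim-sulfamethoxazole is given as the trimethoprim component of a 1:19 mixture.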

SMILES: CCN1CCN(c2cc3c(cc2F)c(=O)c(C(=O)O)cn3C2CC2)CC1 [Enrofloxacin]
- minimum inhibitory concentration (isolate (source animal id): 10): 1 µg/mL (≈ 2.78 µM)
- minimum inhibitory concentration (isolate (source animal id): 11): 1 µg/mL (≈ 2.78 µM)
- minimum inhibitory concentration (isolate (source animal id): 12): 1 µg/mL (≈ 2.78 µM)
- minimum inhibitory concentration (isolate (source animal id): 19): 1 µg/mL (≈ 2.78 µM)
- minimum inhibitory concentration (isolate (source animal id): 23): 1 µg/mL (≈ 2.78 µM)
- minimum inhibitory concentration (isolate (source animal id): 26): 2 µg/mL (≈ 5.56 µM)
- minimum inhibitory concentration (isolate (source animal id): 98): 2 µg/mL (≈ 5.56 µM)
- minimum inhibitory concentration (isolate (source animal id): 104): 0.5 µg/mL (≈ 1.39 µM)
- minimum inhibitory concentration (isolate (source animal id): 115): ≤ 0.12 µg/mL
- minimum inhibitory concentration (isolate (source animal id): 117): > 2 µg/mL
- minimum inhibitory concentration (isolate (source animal id): 118): 2 µg/mL (≈ 5.56 µM)
- minimum inhibitory concentration (isolate (source animal id): 121): ≤ 0.12 µg/mL
- minimum inhibitory concentration (isolate (source animal id): 124): 1 µg/mL (≈ 2.78 µM)
- minimum inhibitory concentration (isolate (source animal id): 125): 1 µg/mL (≈ 2.78 µM)
- minimum inhibitory concentration (isolate (source animal id): 128): ≤ 0.12 µg/mL
- minimum inhibitory concentration (isolate (source animal id): 131): > 2 µg/mL
- minimum inhibitory concentration (isolate (source animal id): 135): > 2 µg/mL
- minimum inhibitory concentration (isolate (source animal id): 136): ≤ 0.12 µg/mL
- minimum inhibitory concentration (isolate (source animal id): 140): 1 µg/mL (≈ 2.78 µM)
- minimum inhibitory concentration (isolate (source animal id): 144): 1 µg/mL (≈ 2.78 µM)
- minimum inhibitory concentration (isolate (source animal id): 146): 1 µg/mL (≈ 2.78 µM)
- minimum inhibitory concentration (isolate (source animal id): 150): ≤ 0.12 µg/mL
- minimum inhibitory concentration (isolate (source animal id): 151): ≤ 0.12 µg/mL
- minimum inhibitory concentration (isolate (source animal id): 153): 1 µg/mL (≈ 2.78 µM)
- minimum inhibitory concentration (isolate (source animal id): 155): 0.5 µg/mL (≈ 1.39 µM)
- minimum inhibitory concentration (isolate (source animal id): 157): 2 µg/mL (≈ 5.56 µM)
- minimum inhibitory concentration (isolate (source animal id): 160): ≤ 0.12 µg/mL
- minimum inhibitory concentration (isolate (source animal id): 164): ≤ 0.12 µg/mL
- minimum inhibitory concentration (isolate (source animal id): 165): ≤ 0.12 µg/mL
- minimum inhibitory concentration (isolate (source animal id): 167): ≤ 0.12 µg/mL
- minimum inhibitory concentration (isolate (source animal id): 168): 2 µg/mL (≈ 5.56 µM)
- minimum inhibitory concentration (isolate (source animal id): 169): ≤ 0.12 µg/mL
- minimum inhibitory concentration (isolate (source animal id): 170): ≤ 0.12 µg/mL
- minimum inhibitory concentration (isolate (source animal id): 171): ≤ 0.12 µg/mL
- minimum inhibitory concentration (isolate (source animal id): 172): ≤ 0.12 µg/mL
- minimum inhibitory concentration (isolate (source animal id): 173): 2 µg/mL (≈ 5.56 µM)
- minimum inhibitory concentration (isolate (source animal id): 174): ≤ 0.12 µg/mL
- minimum inhibitory concentration (isolate (source animal id): 175): ≤ 0.12 µg/mL
- minimum inhibitory concentration (isolate (source animal id): 176): ≤ 0.12 µg/mL
- minimum inhibitory concentration (isolate (source animal id): 177): ≤ 0.12 µg/mL
- minimum inhibitory concentration (isolate (source animal id): 178): ≤ 0.12 µg/mL
- minimum inhibitory concentration (isolate (source animal id): 179): ≤ 0.12 µg/mL
- minimum inhibitory concentration (isolate (source animal id): 182): ≤ 0.12 µg/mL
- minimum inhibitory concentration (isolate (source animal id): 192): ≤ 0.12 µg/mL
- minimum inhibitory concentration (isolate (source animal id): 193): ≤ 0.12 µg/mL
- minimum inhibitory concentration (isolate (source animal id): 195): ≤ 0.12 µg/mL
- minimum inhibitory concentration (isolate (source animal id): 196): ≤ 0.12 µg/mL
- minimum inhibitory concentration (isolate (source animal id): 197): ≤ 0.12 µg/mL
- minimum inhibitory concentration (isolate (source animal id): 198): 2 µg/mL (≈ 5.56 µM)
- minimum inhibitory concentration (isolate (source animal id): 199): ≤ 0.12 µg/mL
- minimum inhibitory concentration (isolate (source animal id): 200): ≤ 0.12 µg/mL
- minimum inhibitory concentration (isolate (source animal id): 201): ≤ 0.12 µg/mL
- minimum inhibitory concentration (isolate (source animal id): 203): ≤ 0.12 µg/mL
- minimum inhibitory concentration (isolate (source animal id): 204): ≤ 0.12 µg/mL
- minimum inhibitory concentration (isolate (source animal id): 205): 2 µg/mL (≈ 5.56 µM)
- minimum inhibitory concentration (isolate (source animal id): 206): ≤ 0.12 µg/mL
- minimum inhibitory concentration (isolate (source animal id): 207): ≤ 0.12 µg/mL
- minimum inhibitory concentration (isolate (source animal id): 208): ≤ 0.12 µg/mL
- minimum inhibitory concentration (isolate (source animal id): 209): ≤ 0.12 µg/mL
- minimum inhibitory concentration (isolate (source animal id): 210): 2 µg/mL (≈ 5.56 µM)
- minimum inhibitory concentration (isolate (source animal id): 213): ≤ 0.12 µg/mL
- minimum inhibitory concentration (isolate (source animal id): 216): ≤ 0.12 µg/mL
- minimum inhibitory concentration (isolate (source animal id): 223): > 2 µg/mL
- minimum inhibitory concentration (isolate (source animal id): 227): ≤ 0.12 µg/mL
- minimum inhibitory concentration (isolate (source animal id): 229): 2 µg/mL (≈ 5.56 µM)
- minimum inhibitory concentration (isolate (source animal id): 233): 2 µg/mL (≈ 5.56 µM)
- minimum inhibitory concentration (isolate (source animal id): 234): 2 µg/mL (≈ 5.56 µM)
- minimum inhibitory concentration (isolate (source animal id): 237): > 2 µg/mL
- minimum inhibitory concentration (isolate (source animal id): 241): > 2 µg/mL
- minimum inhibitory concentration (isolate (source animal id): 245): > 2 µg/mL
- minimum inhibitory concentration (isolate (source animal id): 247): 0.5 µg/mL (≈ 1.39 µM)
- minimum inhibitory concentration (isolate (source animal id): 250): 1 µg/mL (≈ 2.78 µM)
- minimum inhibitory concentration (isolate (source animal id): 254): 2 µg/mL (≈ 5.56 µM)
- minimum inhibitory concentration (isolate (source animal id): 255): 2 µg/mL (≈ 5.56 µM)
- minimum inhibitory concentration (isolate (source animal id): 258): ≤ 0.12 µg/mL
- minimum inhibitory concentration (isolate (source animal id): 261): 2 µg/mL (≈ 5.56 µM)
- minimum inhibitory concentration (isolate (source animal id): 262): 1 µg/mL (≈ 2.78 µM)
- minimum inhibitory concentration (isolate (source animal id): 269): ≤ 0.12 µg/mL
- minimum inhibitory concentration (isolate (source animal id): 270): 2 µg/mL (≈ 5.56 µM)
- minimum inhibitory concentration (isolate (source animal id): 274): > 2 µg/mL
- minimum inhibitory concentration (isolate (source animal id): 275): 2 µg/mL (≈ 5.56 µM)
- minimum inhibitory concentration (isolate (source animal id): 276): > 2 µg/mL
- minimum inhibitory concentration (isolate (source animal id): 277): ≤ 0.12 µg/mL
- minimum inhibitory concentration (isolate (source animal id): 278): 2 µg/mL (≈ 5.56 µM)
- minimum inhibitory concentration (isolate (source animal id): 279): 0.5 µg/mL (≈ 1.39 µM)
- minimum inhibitory concentration (isolate (source animal id): 280): 0.5 µg/mL (≈ 1.39 µM)
- minimum inhibitory concentration (isolate (source animal id): 284): 2 µg/mL (≈ 5.56 µM)
- minimum inhibitory concentration (isolate (source animal id): 285): 1 µg/mL (≈ 2.78 µM)
- minimum inhibitory concentration (isolate (source animal id): 287): 2 µg/mL (≈ 5.56 µM)
- minimum inhibitory concentration (isolate (source animal id): 290): ≤ 0.12 µg/mL
- minimum inhibitory concentration (isolate (source animal id): 294): ≤ 0.12 µg/mL
- minimum inhibitory concentration (isolate (source animal id): 295): ≤ 0.12 µg/mL
- minimum inhibitory concentration (isolate (source animal id): 296): 1 µg/mL (≈ 2.78 µM)
- minimum inhibitory concentration (isolate (source animal id): 307): ≤ 0.12 µg/mL
- minimum inhibitory concentration (isolate (source animal id): 310): ≤ 0.12 µg/mL
- minimum inhibitory concentration (isolate (source animal id): 311): ≤ 0.12 µg/mL
- minimum inhibitory concentration (isolate (source animal id): 312): 1 µg/mL (≈ 2.78 µM)
- minimum inhibitory concentration (isolate (source animal id): 313): 1 µg/mL (≈ 2.78 µM)
- minimum inhibitory concentration (isolate (source animal id): 315): 1 µg/mL (≈ 2.78 µM)
- minimum inhibitory concentration (isolate (source animal id): 316): 1 µg/mL (≈ 2.78 µM)
